The text below walks through data of ChEMBL document CHEMBL1157898 (Bioorg Med Chem Lett, 2010).

The structures appear in SMILES notation. Activity calls are given as the source filed them. The calls are words filed in the database; no cut-off is given here.

Series [1] concerns the target Glycogen synthase kinase-3 beta (Homo sapiens) (UniProt P49841). The series is described as follows: Inhibition of GSK3-beta.
The target in series [2] is T1, Protein kinase C zeta type (Homo sapiens) (UniProt Q05513).
T1 sequence (whole entry): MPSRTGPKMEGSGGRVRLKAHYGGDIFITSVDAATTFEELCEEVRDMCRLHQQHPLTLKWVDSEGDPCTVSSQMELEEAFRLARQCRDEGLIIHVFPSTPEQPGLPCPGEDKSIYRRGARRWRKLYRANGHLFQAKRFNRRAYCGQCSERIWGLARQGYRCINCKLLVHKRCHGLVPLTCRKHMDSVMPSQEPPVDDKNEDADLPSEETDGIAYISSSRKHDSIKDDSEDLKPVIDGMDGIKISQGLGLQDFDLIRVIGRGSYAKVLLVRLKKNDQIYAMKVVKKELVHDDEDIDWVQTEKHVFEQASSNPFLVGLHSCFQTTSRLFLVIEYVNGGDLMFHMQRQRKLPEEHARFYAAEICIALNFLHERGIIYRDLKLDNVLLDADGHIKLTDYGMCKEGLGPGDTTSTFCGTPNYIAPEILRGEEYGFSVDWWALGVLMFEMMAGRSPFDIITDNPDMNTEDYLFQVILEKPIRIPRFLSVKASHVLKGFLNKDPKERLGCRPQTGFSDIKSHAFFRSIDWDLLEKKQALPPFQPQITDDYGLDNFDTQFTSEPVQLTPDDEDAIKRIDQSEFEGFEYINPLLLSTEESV
The series is described as follows: Inhibition of PKCzeta.

The target in series [3] is Mitogen-activated protein kinase 14 (Homo sapiens) (UniProt Q16539). The series is described as follows: Inhibition of P38alpha.
Mitogen-activated protein kinase 14 (Homo sapiens), sequence (Q16539 whole entry): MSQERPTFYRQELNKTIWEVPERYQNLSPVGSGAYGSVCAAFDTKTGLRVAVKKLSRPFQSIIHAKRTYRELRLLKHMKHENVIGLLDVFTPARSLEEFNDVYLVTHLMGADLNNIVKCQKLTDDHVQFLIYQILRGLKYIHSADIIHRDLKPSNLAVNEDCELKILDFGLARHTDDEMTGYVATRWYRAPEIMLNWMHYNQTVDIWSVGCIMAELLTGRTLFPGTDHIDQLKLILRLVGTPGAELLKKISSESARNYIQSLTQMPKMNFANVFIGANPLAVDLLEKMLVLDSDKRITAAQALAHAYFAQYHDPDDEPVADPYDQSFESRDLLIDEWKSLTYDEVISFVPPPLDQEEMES
Series [4] addresses MAP/microtubule affinity-regulating kinase 3 (Homo sapiens) (UniProt P27448). The series is described as follows: Inhibition of C-TAK1.
For series [5], the target named is Mitogen-activated protein kinase 1 (Homo sapiens) (UniProt P28482). In words: Inhibition of ERK2.
Series [6] concerns the target Insulin-like growth factor 1 receptor (Homo sapiens) (UniProt P08069). In words: Inhibition of IGF1R.
In series [7] the target is MAP kinase-activated protein kinase 2 (Homo sapiens) (UniProt P49137). The series is described as follows: Inhibition of MAPKAPK2.
MAP kinase-activated protein kinase 2 (Homo sapiens), sequence (P49137 whole entry, looked up): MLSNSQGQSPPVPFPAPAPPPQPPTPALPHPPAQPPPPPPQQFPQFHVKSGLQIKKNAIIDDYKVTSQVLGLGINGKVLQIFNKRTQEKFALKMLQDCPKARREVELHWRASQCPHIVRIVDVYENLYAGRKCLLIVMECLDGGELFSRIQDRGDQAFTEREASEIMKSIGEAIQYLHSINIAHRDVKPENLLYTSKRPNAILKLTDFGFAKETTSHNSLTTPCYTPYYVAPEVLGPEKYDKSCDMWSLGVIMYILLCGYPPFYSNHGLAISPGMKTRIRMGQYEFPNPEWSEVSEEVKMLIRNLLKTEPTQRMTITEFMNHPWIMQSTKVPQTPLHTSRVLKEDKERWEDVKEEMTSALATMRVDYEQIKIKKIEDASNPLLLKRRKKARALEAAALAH
Series [8] can be described thus: Inhibition of PKA.
In series [9] the target is T2, Serine/threonine-protein kinase D2 (Homo sapiens) (UniProt Q9BZL6).
T2 sequence (whole entry): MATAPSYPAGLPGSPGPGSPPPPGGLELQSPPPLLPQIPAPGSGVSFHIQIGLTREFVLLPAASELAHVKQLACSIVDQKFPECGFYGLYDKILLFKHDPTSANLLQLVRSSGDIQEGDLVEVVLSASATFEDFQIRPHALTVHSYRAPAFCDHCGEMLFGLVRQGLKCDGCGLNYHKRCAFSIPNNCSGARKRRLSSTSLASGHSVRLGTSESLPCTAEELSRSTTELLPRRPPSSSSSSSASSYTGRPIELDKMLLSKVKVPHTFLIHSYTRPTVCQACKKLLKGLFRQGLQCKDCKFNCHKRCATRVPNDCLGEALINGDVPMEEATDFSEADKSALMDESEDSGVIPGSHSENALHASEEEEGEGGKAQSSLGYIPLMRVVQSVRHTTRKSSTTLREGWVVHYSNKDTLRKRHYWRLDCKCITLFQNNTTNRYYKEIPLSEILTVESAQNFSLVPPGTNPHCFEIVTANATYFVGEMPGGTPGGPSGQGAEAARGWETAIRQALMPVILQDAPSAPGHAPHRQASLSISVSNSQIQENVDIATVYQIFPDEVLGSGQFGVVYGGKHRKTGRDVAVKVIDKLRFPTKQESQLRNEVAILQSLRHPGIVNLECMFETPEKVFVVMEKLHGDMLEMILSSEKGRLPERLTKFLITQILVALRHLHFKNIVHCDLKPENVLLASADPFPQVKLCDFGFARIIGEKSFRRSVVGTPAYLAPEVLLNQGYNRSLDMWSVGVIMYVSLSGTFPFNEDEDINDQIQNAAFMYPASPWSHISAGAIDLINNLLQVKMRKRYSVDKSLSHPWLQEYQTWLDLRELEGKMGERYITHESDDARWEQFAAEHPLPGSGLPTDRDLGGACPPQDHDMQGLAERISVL
The series is described as follows: Inhibition of PKD2.

Series [10] deals with Serine/threonine-protein kinase Chk2 (Homo sapiens) (UniProt O96017). The series is described as follows: Inhibition of CHK2.
Serine/threonine-protein kinase Chk2 (Homo sapiens), sequence (O96017 whole entry): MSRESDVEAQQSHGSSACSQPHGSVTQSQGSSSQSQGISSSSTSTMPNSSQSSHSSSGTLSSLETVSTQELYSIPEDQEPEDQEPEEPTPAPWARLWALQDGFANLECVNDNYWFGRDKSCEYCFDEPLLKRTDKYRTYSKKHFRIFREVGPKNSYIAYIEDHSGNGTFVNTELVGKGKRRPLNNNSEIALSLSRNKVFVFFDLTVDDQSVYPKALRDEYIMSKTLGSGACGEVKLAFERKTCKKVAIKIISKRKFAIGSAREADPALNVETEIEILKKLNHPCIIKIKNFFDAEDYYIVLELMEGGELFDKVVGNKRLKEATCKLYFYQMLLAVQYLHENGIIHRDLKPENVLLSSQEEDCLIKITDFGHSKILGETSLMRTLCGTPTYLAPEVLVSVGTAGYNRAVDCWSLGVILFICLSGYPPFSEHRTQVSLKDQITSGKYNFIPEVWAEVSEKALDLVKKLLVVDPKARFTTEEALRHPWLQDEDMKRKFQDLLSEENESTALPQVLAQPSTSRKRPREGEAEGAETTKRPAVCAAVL
The test system of series [11] is H4. In words: Toxicity in human H4 cells at 10 uM. The format is cell-based. To be noted: h4, 10 µM.
Series [12] has as its target Mitogen-activated protein kinase 3 (Homo sapiens) (UniProt P27361). In words: Inhibition of ERK1.
The target in series [13] is Gamma-secretase (Homo sapiens) (UniProt Q96BI3+Q9NZ42+Q8WW43+P49768+Q92542+P49810). The series is described as follows: Inhibition of gamma secretase mediated amyloid beta 38 generation in human H4 cells at 10 uM by LPECL assay; values are per cent of control.
Series [14] deals with T3, Aurora kinase A (Homo sapiens) (UniProt O14965).
T3 sequence (whole entry): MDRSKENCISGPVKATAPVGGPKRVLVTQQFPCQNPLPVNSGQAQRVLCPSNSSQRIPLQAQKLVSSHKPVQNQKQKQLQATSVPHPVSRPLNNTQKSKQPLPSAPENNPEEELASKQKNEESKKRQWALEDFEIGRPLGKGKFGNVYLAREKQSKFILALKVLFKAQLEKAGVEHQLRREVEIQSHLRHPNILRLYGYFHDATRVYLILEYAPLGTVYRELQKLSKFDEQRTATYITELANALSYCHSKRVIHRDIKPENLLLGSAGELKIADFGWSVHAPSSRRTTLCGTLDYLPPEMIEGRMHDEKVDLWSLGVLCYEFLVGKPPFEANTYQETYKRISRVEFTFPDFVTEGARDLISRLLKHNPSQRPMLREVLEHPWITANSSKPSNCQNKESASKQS
The series is described as follows: Inhibition of Aurora A.

Series [15] addresses RAF proto-oncogene serine/threonine-protein kinase (Homo sapiens) (UniProt P04049). The series is described as follows: Inhibition of C-Raf.
The target of series [16] is T4, Serine/threonine-protein kinase Chk1 (Homo sapiens) (UniProt O14757).
T4 sequence (whole entry): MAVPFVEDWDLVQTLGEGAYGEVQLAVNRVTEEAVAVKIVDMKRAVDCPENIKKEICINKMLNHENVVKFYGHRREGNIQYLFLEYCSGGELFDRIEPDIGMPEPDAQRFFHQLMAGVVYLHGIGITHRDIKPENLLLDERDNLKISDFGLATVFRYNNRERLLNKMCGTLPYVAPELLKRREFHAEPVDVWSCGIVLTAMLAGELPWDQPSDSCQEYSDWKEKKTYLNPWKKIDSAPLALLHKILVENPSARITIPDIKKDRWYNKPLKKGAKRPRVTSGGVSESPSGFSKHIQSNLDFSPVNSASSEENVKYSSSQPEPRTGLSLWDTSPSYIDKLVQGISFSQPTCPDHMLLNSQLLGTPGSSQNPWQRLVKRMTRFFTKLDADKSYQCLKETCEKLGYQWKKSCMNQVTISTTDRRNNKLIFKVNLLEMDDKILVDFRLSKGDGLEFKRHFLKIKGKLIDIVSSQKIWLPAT
In words: Inhibition of CHK1.

RAF proto-oncogene serine/threonine-protein kinase (Homo sapiens), sequence (P04049 whole entry): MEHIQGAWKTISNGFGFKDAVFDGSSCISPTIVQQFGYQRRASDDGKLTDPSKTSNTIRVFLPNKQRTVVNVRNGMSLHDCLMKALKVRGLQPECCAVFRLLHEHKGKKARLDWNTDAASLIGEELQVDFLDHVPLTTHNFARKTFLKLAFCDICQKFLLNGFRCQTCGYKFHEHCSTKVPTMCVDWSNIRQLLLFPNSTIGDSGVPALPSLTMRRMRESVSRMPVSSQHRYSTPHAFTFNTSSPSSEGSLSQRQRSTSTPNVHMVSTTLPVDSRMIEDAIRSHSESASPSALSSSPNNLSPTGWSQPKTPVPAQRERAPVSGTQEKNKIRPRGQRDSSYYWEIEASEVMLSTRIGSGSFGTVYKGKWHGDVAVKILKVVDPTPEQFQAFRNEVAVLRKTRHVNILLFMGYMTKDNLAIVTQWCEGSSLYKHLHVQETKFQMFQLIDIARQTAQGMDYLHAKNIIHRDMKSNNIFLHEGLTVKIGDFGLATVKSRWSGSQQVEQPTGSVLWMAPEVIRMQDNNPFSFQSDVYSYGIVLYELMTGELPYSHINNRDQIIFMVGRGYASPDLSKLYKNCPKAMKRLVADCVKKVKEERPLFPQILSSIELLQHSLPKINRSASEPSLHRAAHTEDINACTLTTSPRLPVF
Mitogen-activated protein kinase 3 (Homo sapiens), sequence (P27361 whole entry): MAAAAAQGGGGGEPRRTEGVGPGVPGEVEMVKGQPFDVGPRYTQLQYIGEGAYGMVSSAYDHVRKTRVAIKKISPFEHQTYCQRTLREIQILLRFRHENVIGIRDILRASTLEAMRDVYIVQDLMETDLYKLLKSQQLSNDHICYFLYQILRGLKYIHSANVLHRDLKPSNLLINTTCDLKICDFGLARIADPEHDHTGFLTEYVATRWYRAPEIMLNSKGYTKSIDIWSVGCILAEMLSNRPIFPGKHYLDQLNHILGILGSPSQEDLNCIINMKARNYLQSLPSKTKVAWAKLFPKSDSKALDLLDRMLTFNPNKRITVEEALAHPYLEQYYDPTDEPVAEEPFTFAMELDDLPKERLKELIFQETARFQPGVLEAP
MAP/microtubule affinity-regulating kinase 3 (Homo sapiens), sequence (P27448 whole entry, looked up): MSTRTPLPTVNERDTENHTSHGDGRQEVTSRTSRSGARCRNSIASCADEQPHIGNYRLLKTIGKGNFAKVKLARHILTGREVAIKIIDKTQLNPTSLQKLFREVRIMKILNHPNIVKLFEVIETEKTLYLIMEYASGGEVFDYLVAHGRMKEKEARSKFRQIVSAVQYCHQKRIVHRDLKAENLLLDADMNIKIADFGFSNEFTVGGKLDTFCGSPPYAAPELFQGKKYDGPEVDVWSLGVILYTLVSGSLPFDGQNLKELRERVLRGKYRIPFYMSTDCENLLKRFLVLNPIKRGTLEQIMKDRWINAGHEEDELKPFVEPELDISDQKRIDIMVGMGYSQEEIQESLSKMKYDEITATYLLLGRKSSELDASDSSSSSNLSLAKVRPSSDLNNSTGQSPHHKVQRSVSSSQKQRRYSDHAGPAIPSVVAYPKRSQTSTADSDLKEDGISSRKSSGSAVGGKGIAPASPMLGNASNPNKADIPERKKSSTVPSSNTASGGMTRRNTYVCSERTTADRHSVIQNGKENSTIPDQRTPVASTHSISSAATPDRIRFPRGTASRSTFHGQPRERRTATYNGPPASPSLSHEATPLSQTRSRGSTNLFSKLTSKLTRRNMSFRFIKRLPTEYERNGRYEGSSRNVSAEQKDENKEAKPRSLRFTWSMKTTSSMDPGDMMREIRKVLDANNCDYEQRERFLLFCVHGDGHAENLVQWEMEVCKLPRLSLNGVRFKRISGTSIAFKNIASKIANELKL
Insulin-like growth factor 1 receptor (Homo sapiens), sequence (P08069 31-736 limits assumed): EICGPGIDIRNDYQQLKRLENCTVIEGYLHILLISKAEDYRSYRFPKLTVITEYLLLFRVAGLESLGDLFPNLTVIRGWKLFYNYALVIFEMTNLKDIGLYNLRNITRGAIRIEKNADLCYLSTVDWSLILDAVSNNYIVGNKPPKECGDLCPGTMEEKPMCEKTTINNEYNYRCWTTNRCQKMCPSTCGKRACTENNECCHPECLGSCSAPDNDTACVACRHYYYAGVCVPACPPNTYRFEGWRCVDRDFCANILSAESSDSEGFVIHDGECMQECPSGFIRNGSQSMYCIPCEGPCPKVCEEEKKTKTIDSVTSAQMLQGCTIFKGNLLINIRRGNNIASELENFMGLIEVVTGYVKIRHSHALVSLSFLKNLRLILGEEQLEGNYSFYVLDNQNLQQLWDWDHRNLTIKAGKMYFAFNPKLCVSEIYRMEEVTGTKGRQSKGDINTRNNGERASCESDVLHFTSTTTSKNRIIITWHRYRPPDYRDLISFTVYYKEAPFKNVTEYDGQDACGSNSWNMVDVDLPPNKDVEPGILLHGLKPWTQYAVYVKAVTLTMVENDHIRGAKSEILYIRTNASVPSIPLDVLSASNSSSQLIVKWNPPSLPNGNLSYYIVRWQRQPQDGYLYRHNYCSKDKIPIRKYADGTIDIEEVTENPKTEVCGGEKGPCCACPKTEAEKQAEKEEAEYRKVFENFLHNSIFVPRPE
Insulin-like growth factor 1 receptor (Homo sapiens), sequence (P08069 741-1367 limits assumed): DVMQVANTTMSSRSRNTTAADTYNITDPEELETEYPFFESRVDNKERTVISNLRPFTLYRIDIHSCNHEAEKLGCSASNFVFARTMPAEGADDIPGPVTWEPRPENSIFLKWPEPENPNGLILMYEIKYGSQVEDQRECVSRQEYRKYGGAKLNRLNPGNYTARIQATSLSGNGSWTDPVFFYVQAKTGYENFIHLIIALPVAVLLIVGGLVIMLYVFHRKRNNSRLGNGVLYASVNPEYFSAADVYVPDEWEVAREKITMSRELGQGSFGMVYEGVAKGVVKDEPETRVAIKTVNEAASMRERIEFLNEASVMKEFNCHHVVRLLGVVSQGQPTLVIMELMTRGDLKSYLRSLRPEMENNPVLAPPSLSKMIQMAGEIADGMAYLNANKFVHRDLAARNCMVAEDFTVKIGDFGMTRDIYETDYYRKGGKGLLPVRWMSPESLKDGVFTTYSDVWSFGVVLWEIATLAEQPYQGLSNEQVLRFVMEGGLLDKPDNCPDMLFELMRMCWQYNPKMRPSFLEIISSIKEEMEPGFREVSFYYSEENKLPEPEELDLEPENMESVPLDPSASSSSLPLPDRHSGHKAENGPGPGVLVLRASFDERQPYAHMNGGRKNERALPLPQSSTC
Glycogen synthase kinase-3 beta (Homo sapiens), sequence (P49841 whole entry, looked up): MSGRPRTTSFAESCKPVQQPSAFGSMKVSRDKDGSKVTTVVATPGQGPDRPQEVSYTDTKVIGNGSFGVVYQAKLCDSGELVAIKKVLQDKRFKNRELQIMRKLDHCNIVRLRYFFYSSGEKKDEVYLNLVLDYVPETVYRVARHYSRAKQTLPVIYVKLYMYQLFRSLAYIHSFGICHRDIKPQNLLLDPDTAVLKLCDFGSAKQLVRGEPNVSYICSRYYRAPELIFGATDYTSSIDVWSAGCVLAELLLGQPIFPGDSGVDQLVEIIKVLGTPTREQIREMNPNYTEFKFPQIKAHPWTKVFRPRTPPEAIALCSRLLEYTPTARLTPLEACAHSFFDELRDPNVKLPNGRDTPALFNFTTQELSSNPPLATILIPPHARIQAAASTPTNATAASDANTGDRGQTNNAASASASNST

By residual activity is commonly meant the activity still measured, relative to the control. `COc1ccc(/C=C2/C(=O)Nc3ccc(Cl)cc32)c(OC)c1OC`: the inhibition result in [1], in series [2], in [3], in series [4], in series [5] and in [6] was “inactive” each time. The inhibition result in series [7], in [8], in [9], in series [10], in series [12] and in series [14] was “inactive” in each case. Besides, the inhibition entry in [15] and in series [16] was “inactive” each time. For the same compound, in [11], the Activity came to 20 µM. Moreover, the residual activity in [13] was found to be 27%.
